Data as given in patent US20060121083A1 (priority 2003, published 2006).
Converted amounts (≈) assume the structure as drawn. Read-outs that look alike come from different tables or passages of the source. Square brackets hold non-standard residues; d marks the D form. Peptide text beside a SMILES is read from it. * marks the point of attachment. Lauroyl = CCCCCCCCCCCC(=O)*; 12Ado = NCCCCCCCCCCCC(=O)O; Decanoyl = CCCCCCCCCC(=O)*; Octanoyl = CCCCCCCC(=O)*; Hexanoyl = CCCCCC(=O)*; Butyryl = CCCC(=O)*

Assays:
[1] = system: S. aureus; assay: MIC assayed against S. aureus (Table 1); format: cell-based
[2] = system: methicillin-resistant S. aureus (MRSA); format: in vivo; details: rats, MRSA challenge, explanted at 7 days
Text: (§1) Animals: Adult male Wistar rats, 250-300 gr (I.N.R.C.A. I.R.R.C.S. animal facility, Ancona) were used, with 15 animals per experimental group.
(§2) Mammalian graft infection model: Rats were anesthetized and their hair of the back was shaved and the skin cleansed with 10 percent povidone-iodine solution. One subcutaneous pocket was made on each side of the median line by a 1.5 cm incision. Aseptically, 1 square centimeter sterile albumin-sealed Dacron™ grafts (Albograft™, Sorin Biomedica Cardio, S.p.A., Saluggia VC, Italy) were implanted into the pockets. Prior to implantation grafts were soaked for 20 minutes in sterile antibiotic solutions. The pockets were closed by means of skin clips and saline solution (1 mL) containing methicillin-resistant S. aureus (MRSA) or S. epidermidis (MRSE) at a concentration of 2×10^7 colony-forming units (CFU)/mL was inoculated onto the graft surface by using a tuberculin syringe to create a subcutaneous fluid-filled pocket. The animals were returned to individual cages and thoroughly examined daily. All grafts were explanted at 7 days following implantation.
(§3) Assessment of the infection: The explanted grafts were placed in sterile tubes, washed in sterile saline solution, placed in tubes containing 10 mL of phosphate-buffered saline solution and sonicated for 5 minutes to remove the adherent bacteria from the grafts (Balaban, N. et al, 2003. Kidney Int. 63: 340-345). Quantitation of viable staphylococci was performed by culturing serial dilutions (0.1 mL) of the bacterial suspensions on blood agar plates at 37 degrees centigrade for 48 hours. The organisms were quantitated by counting the number of colony-forming units (CFUs) per plate. The limit of detection for this method was approximately 10 CFU/mL.
(§4) Statistical analysis: MIC values are presented as the geometric mean of three separate experiments. […] Significance was accepted when the P value was less than/equal to 0.05.

[3] = system: methicillin-resistant S. epidermidis (MRSE); format: in vivo; details: rats, MRSE challenge, explanted at 7 days
Text: as §1, §2, §3, §4

[4] = system: S. aureus cells; assay: Bacterial growth (CFU) of S. aureus culture grown with peptides; format: cell-based; details: in-vitro culture grown 2.5 hours with peptide, FIG. 5a
Method: (§5) RNAIII synthesis and bacterial growth: Cultures of S. aureus (20 million cells in a volume of 30 microliters) containing an expression construct for expression of the fusion protein maiii::blaZ (described in Gov, Y. et al., 2001. Peptides. 22: 1609-20 were grown for 2.5 hours with 5 microliters peptide solution or control buffer. A 5 microliter sample was taken from the cultures, diluted in saline, and streaked on LB agar plates to quantitate CFUs. The remainder of the cultures were used to determine RNAIII synthesis (beta-lactamase activity). This was performed by adding a substrate of beta-lactamase (nitrocefin), and determining OD 490 nm/OD 650 nm, as previously described (Gov, Y. et al., 2001. Peptides. 22: 1609-20).

[5] = system: RNAIII synthesis; assay: RNAIII synthesis (beta-lactamase reporter, nitrocefin); format: cell-based, S. aureus
Method: as §5

[6] = graft presoaked in 10 micrograms/mL peptide
[7] = graft presoaked in 20 micrograms/mL peptide
[8] = graft presoaked in 50 micrograms/mL peptide

Row | Structure (SMILES) | MIC (minimal inhibitory concentration) [1] [µM] | further results
1 | CC(C)C[C@H](NC(=O)[C@H](Cc1c[nH]c2ccccc12)NC(=O)[C@H](CCCCN)NC(=O)[C@@H](NC(=O)[C@H](CC(C)C)NC(=O)[C@H](CC(C)C)NC(=O)[C@H](CCCCN)NC(=O)[C@H](CCCCN)NC(=O)[C@@H](NC(=O)[C@H](CC(C)C)NC(=O)[C@H](CCCCN)NC(=O)[C@H](C)NC(=O)CCCCCCCCCCCN)C(C)C)[C@@H](C)O)C(=O)N[C@@H](C)C(N)=O [SEQ ID NO: 2, NC12—, —CONH2] | 1.5 (≈ 2.56 µg/mL) | 
2 | CC(C)C[C@H](NC(=O)[C@H](C)N)C(=O)N[C@@H](Cc1c[nH]c2ccccc12)C(=O)N[C@@H](CCCCN)C(=O)N[C@H](C(=O)N[C@@H](CC(C)C)C(=O)N[C@@H](CC(C)C)C(=O)N[C@@H](CCCCN)C(=O)N[C@@H](CCCCN)C(=O)N[C@H](C(=O)N[C@@H](CC(C)C)C(=O)N[C@@H](CCCCN)C(=O)N[C@@H](C)C(N)=O)C(C)C)[C@@H](C)O [DD13] (H-ALWKTLLKKVLKA-NH2; N-terminus assumed) | 9 ± 3 (≈ 13.6 µg/mL) | Graft bacterial load (quantitative culture) [2, 6]: 5.2×10^2±1.6×10^2 CFU/ml; Graft bacterial load (quantitative culture) [2, 7]: 4.0×10^1±1.7×10^1 CFU/ml; Graft bacterial load (quantitative culture) [2, 8]: negative quantitative cultures; Graft bacterial load (quantitative culture) [3, 6]: 5.2×10^2±1.6×10^2 CFU/ml; Graft bacterial load (quantitative culture) [3, 7]: 4.4×10^1±1.3×10^1 CFU/ml; Graft bacterial load (quantitative culture) [3, 8]: negative quantitative cultures; Bactericidal activity (CFU counts) [4]: potent bactericidal activity; Inhibition of RNAIII synthesis ([5]; FIG. 5b, at high peptide concentrations mostly attributable to cell death): more efficient than RIP; Effect on RNAIII synthesis at low peptide concentrations ([5]; low peptide concentrations where no cell death occurred (inset FIG. 5b)): unable to affect RNAIII synthesis
3 | CC(C)C[C@H](NC(=O)[C@H](C)NC(=O)CCCCCCCCCCCN)C(=O)N[C@@H](Cc1c[nH]c2ccccc12)C(=O)N[C@@H](CCCCN)C(=O)N[C@H](C(=O)N[C@@H](CC(C)C)C(=O)N[C@@H](CC(C)C)C(=O)N[C@@H](CCCCN)C(=O)N[C@@H](CCCCN)C(=O)N[C@H](C(=O)N[C@@H](CC(C)C)C(=O)N[C@@H](CCCCN)C(=O)N[C@@H](C)C(N)=O)C(C)C)[C@@H](C)O [SEQ ID NO: 1, NC12—, —CONH2] (H-[12Ado]ALWKTLLKKVLKA-NH2) | 0.75 (≈ 1.28 µg/mL) | 
4 | CC(=O)N[C@@H](C)C(=O)N[C@@H](CC(C)C)C(=O)N[C@@H](Cc1c[nH]c2ccccc12)C(=O)N[C@@H](CCCCN)C(=O)N[C@H](C(=O)N[C@@H](CC(C)C)C(=O)N[C@@H](CC(C)C)C(=O)N[C@@H](CCCCN)C(=O)N[C@@H](CCCCN)C(=O)N[C@H](C(=O)N[C@@H](CC(C)C)C(=O)N[C@@H](CCCCN)C(=O)N[C@@H](C)C(N)=O)C(C)C)[C@@H](C)O [SEQ ID NO: 1, C2—, —CONH2] (Ac-ALWKTLLKKVLKA-NH2) | 25 (≈ 38.8 µg/mL) | 
5 | CCCCCCCCCCCC(=O)N[C@@H](C)C(=O)N[C@@H](CC(C)C)C(=O)N[C@@H](Cc1c[nH]c2ccccc12)C(=O)N[C@@H](CCCCN)C(=O)N[C@H](C(=O)N[C@@H](CC(C)C)C(=O)N[C@@H](CC(C)C)C(=O)N[C@@H](CCCCN)C(=O)N[C@@H](CCCCN)C(=O)N[C@H](C(=O)N[C@@H](CC(C)C)C(=O)N[C@@H](CCCCN)C(=O)N[C@@H](C)C(N)=O)C(C)C)[C@@H](C)O [SEQ ID NO: 1, C12—, —CONH2] (Lauroyl-ALWKTLLKKVLKA-NH2) | 4.5 ± 1.5 (≈ 7.62 µg/mL) | 
6 | CCCCCCCCCCCC(=O)N[C@H](C(=O)N[C@@H](CC(C)C)C(=O)N[C@@H](CC(C)C)C(=O)N[C@@H](CCCCN)C(=O)N[C@@H](CCCCN)C(=O)N[C@H](C(=O)N[C@@H](CC(C)C)C(=O)N[C@@H](CCCCN)C(=O)N[C@@H](C)C(N)=O)C(C)C)[C@@H](C)O [SEQ ID NO: 5, C12, —CONH2] (Lauroyl-TLLKKVLKA-NH2) | 1.5 ± 0.75 (≈ 1.79 µg/mL) | 
7 | CCCCCC(=O)N[C@@H](C)C(=O)N[C@@H](CC(C)C)C(=O)N[C@@H](Cc1c[nH]c2ccccc12)C(=O)N[C@@H](CCCCN)C(=O)N[C@H](C(=O)N[C@@H](CC(C)C)C(=O)N[C@@H](CC(C)C)C(=O)N[C@@H](CCCCN)C(=O)N[C@@H](CCCCN)C(=O)N[C@H](C(=O)N[C@@H](CC(C)C)C(=O)N[C@@H](CCCCN)C(=O)N[C@@H](C)C(N)=O)C(C)C)[C@@H](C)O [SEQ ID NO: 1, C6—, —CONH2] (Hexanoyl-ALWKTLLKKVLKA-NH2) | 2.2 ± 0.8 (≈ 3.54 µg/mL) | 
8 | CCCCCCCC(=O)N[C@@H](C)C(=O)N[C@@H](CC(C)C)C(=O)N[C@@H](Cc1c[nH]c2ccccc12)C(=O)N[C@@H](CCCCN)C(=O)N[C@H](C(=O)N[C@@H](CC(C)C)C(=O)N[C@@H](CC(C)C)C(=O)N[C@@H](CCCCN)C(=O)N[C@@H](CCCCN)C(=O)N[C@H](C(=O)N[C@@H](CC(C)C)C(=O)N[C@@H](CCCCN)C(=O)N[C@@H](C)C(N)=O)C(C)C)[C@@H](C)O [SEQ ID NO: 1, C8—, —CONH2] (Octanoyl-ALWKTLLKKVLKA-NH2) | 1.5 (≈ 2.46 µg/mL) | 
9 | CCCCCCCCCC(=O)N[C@@H](C)C(=O)N[C@@H](CC(C)C)C(=O)N[C@@H](Cc1c[nH]c2ccccc12)C(=O)N[C@@H](CCCCN)C(=O)N[C@H](C(=O)N[C@@H](CC(C)C)C(=O)N[C@@H](CC(C)C)C(=O)N[C@@H](CCCCN)C(=O)N[C@@H](CCCCN)C(=O)N[C@H](C(=O)N[C@@H](CC(C)C)C(=O)N[C@@H](CCCCN)C(=O)N[C@@H](C)C(N)=O)C(C)C)[C@@H](C)O [SEQ ID NO: 1, C10—, —CONH2] (Decanoyl-ALWKTLLKKVLKA-NH2) | 1.5 (≈ 2.5 µg/mL) | 
10 | CCCCCCCCCCCC(=O)N[C@@H](C)C(=O)N[C@@H](CC(C)C)C(=O)N[C@@H](Cc1c[nH]c2ccccc12)C(=O)N[C@@H](CCCCN)C(=O)N[C@H](C(=O)N[C@@H](CC(C)C)C(=O)N[C@@H](CC(C)C)C(=O)N[C@@H](CCCCN)C(=O)N[C@@H](CCCCN)C(=O)N[C@H](C(N)=O)C(C)C)[C@@H](C)O [SEQ ID NO: 4, C12, —CONH2] (Lauroyl-ALWKTLLKKV-NH2) | 3 (≈ 4.14 µg/mL) | 
11 | CC(C)C[C@H](NC(=O)[C@H](C)NC(=O)[C@H](CCCCN)NC(=O)CCCCCCCCCCCN)C(=O)N[C@@H](Cc1c[nH]c2ccccc12)C(=O)N[C@@H](CCCCN)C(=O)N[C@H](C(=O)N[C@@H](CC(C)C)C(=O)N[C@@H](CC(C)C)C(=O)N[C@@H](CCCCN)C(=O)N[C@@H](CCCCN)C(=O)N[C@H](C(=O)N[C@@H](CC(C)C)C(=O)N[C@@H](CCCCN)C(=O)N[C@@H](C)C(N)=O)C(C)C)[C@@H](C)O [SEQ ID NO: 3, NC12—, —CONH2] | 1.5 (≈ 2.75 µg/mL) | 
12 | CCCC(=O)N[C@@H](C)C(=O)N[C@@H](CC(C)C)C(=O)N[C@@H](Cc1c[nH]c2ccccc12)C(=O)N[C@@H](CCCCN)C(=O)N[C@H](C(=O)N[C@@H](CC(C)C)C(=O)N[C@@H](CC(C)C)C(=O)N[C@@H](CCCCN)C(=O)N[C@@H](CCCCN)C(=O)N[C@H](C(=O)N[C@@H](CC(C)C)C(=O)N[C@@H](CCCCN)C(=O)N[C@@H](C)C(N)=O)C(C)C)[C@@H](C)O [SEQ ID NO: 1, C4—, —CONH2] (Butyryl-ALWKTLLKKVLKA-NH2) | 12 (≈ 19 µg/mL) | 
